Key:
[1] = Inhibition of HCV GT1b NS5B polymerase; parameters: species or system Hepacivirus hominis
[2] = Inhibition of wild type HCV GT1b NS5B polymerase; parameters: species or system Hepacivirus hominis
Hepatitis C virus = assay: Antiviral activity against […] Con1 GT1b infected in HuH7 cells by replicon assay; assay type: functional, Hepacivirus hominis; conditions: Huh-7
[3] = biological target: RNA-directed RNA polymerase (Hepacivirus hominis, UniProt O39930, M414T); assay: Inhibition of HCV NS5B polymerase M414T mutant
[4] = Cytotoxicity against human HuH7 cells by WST-1 assay; assay type: cell-based, Huh-7
[5] = biological target: RNA-directed RNA polymerase (Hepacivirus hominis, UniProt O39930, L419M); assay: Inhibition of HCV NS5B polymerase L419M mutant
Chain of RNA-directed RNA polymerase (Hepacivirus hominis, UniProt O39930, L419M) (O39930 entry or part of it L419M): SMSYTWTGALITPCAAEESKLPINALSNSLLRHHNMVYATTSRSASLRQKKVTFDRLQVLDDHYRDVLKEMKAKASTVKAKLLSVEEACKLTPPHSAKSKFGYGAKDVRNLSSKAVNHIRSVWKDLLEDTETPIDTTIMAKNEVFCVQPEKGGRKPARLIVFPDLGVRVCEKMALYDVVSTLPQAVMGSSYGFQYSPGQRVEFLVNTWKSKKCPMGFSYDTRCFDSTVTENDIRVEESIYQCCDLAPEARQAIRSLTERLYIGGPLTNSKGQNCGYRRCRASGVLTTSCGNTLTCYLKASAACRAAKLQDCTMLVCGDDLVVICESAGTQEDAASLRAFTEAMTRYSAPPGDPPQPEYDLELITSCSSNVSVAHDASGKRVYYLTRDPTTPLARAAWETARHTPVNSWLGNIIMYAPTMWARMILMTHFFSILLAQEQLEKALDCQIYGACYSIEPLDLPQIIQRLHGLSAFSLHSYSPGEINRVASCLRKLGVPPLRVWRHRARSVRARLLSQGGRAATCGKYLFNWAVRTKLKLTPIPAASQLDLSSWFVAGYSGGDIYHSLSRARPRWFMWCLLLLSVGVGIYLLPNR

Chain of RNA-directed RNA polymerase (Hepacivirus hominis, UniProt O39930, M414T) (O39930 entry or part of it M414T): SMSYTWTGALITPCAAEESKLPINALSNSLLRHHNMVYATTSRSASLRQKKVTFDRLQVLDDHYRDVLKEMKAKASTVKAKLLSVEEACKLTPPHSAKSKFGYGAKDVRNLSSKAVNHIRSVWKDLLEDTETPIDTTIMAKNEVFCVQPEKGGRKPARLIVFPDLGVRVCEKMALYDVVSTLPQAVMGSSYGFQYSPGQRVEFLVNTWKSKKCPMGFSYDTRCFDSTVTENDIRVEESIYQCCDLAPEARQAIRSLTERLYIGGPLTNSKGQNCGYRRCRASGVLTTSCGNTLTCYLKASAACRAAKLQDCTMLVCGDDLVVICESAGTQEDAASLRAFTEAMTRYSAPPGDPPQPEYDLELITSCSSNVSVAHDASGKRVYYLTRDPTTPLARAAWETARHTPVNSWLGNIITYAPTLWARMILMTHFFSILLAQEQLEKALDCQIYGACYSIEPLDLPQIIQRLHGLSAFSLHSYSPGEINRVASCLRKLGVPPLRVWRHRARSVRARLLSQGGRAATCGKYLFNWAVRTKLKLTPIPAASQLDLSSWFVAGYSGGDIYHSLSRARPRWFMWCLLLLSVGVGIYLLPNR

SMILES	IC50 [1] [µM]	also measured
O=C(O)c1sc(-c2ccccc2)cc1-c1cnnn1C1CCCCC1	0.34	
O=C(O)c1sc(-c2ccccc2)cc1-c1cc(=O)[nH]nc1-c1ccccc1	92	
Cc1ccc(-n2nncc2-c2cc(-c3ccccc3)sc2C(=O)O)cc1	0.11	Kd [2]: 4.32 µM; EC50 (Hepatitis C virus): > 30 µM; Kd [3]: 3.99 µM; CC50 [4]: > 30 µM; Kd [5]: 23.1 µM
C[C@H]1CC[C@H](c2cc(-c3cc(-c4ccccc4)sc3C(=O)O)on2)CC1	32	
Cc1ccc(-c2cc(=O)[nH]nc2-c2cc(-c3ccccc3)sc2C(=O)O)cc1	3.3	
Cc1ccc(-c2nocc2-c2cc(-c3ccccc3)sc2C(=O)O)cc1	2.5	
C[C@H]1CC[C@H](c2ncccc2-c2cc(-c3ccccc3)sc2C(=O)O)CC1	0.022	
CC1CCC(=Cc2ncccc2-c2cc(-c3ccccc3)sc2C(=O)O)CC1 (stereo unspecified)	0.17	
C[C@H]1CC[C@H](c2ccccc2-c2cc(-c3ccccc3)sc2C(=O)O)CC1	0.042	EC50 (Hepatitis C virus): 12 µM; CC50 [4]: 20 µM
O=C(O)c1sc(-c2ccccc2)cc1-c1conc1-c1ccc(Cl)cc1	2.6	
CC(C)N(c1cc(-c2ccccc2)sc1C(=O)O)C(=O)[C@H]1CC[C@H](C)CC1	0.028	Kd [2]: 0.041 µM; EC50 (Hepatitis C virus): 0.23 µM; Kd [3]: 0.033 µM; CC50 [4]: 48 µM; Kd [5]: 0.427 µM
O=C(O)c1sc(-c2ccccc2)cc1-c1conc1-c1ccc(F)cc1	5.7	
C[C@H]1CC[C@H](n2nncc2-c2cc(-c3ccccc3)sc2C(=O)O)CC1	0.1	Kd [2]: 0.86 µM; EC50 (Hepatitis C virus): 15 µM; Kd [3]: 0.597 µM; CC50 [4]: > 50 µM; Kd [5]: 4.48 µM

The remaining molecules from weak to strong by IC50 [1], led by results:

IC50 [1] [µM]	SMILES	also measured
29	O=C(O)c1sc(-c2ccccc2)cc1-c1conc1-c1ccccc1	
17	O=C(O)c1sc(-c2ccccc2)cc1-c1cnnn1-c1ccccc1	
16	CCCCOc1ccccc1-c1cc(-c2ccccc2)sc1C(=O)O	
0.62	Cc1ccc(-c2cc(=O)[nH]n2-c2cc(-c3ccccc3)sc2C(=O)O)cc1	
0.11	C[C@H]1CC[C@H](c2nocc2-c2cc(-c3ccccc3)sc2C(=O)O)CC1	
0.074	O=C(O)c1sc(-c2ccccc2)cc1-c1conc1C1CCCCC1	
